The record followed here is patent publication US9326973B2, “Hepatitis C virus inhibitors” (priority 2012, dated 2016).

The subject of this assay is HCV replicon, genotype-1a variant with glutamine 30 changed to glutamate in the NS5A protein. As to the kind of experiment: microbe, parasite or virus in culture. The assay is classed as cell-based, HCV genotype 1a. The following applies: HCV replicon genotype 1a Q30E (Q→E) variant; test compound titrated with an NS5A-targeting compound (BMS-790052 fixed at 200 nM); ranking of synergist activity. An outline of the steps:
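Synergy was assessed by combining several fixed amounts of an NS5A-targeting compound with a titration of the second compound of interest.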
Background: A replicon is a self-replicating genome or part of one, used to study replication in cells.

Consider `C=CCC(F)(F)C(=O)N[C@H](c1nc(-c2ccc(-c3ccc(-c4c[nH]c([C@@H](NC(=O)C(F)(F)CC=C)C(C)(C)C)n4)cc3)cc2)c[nH]1)C(C)(C)C` [Compound S-287], for which the “Fold-Synergistic 1a (Q30E)” value is given as greater than 100 fold.
In the case of `Cc1ccc(C(F)(F)C(=O)N[C@H](c2nc(-c3ccc(-c4ccc(-c5c[nH]c([C@@H](NC(=O)C(F)(F)c6ccc(C)cc6)C(C)(C)C)n5)cc4)cc3)c[nH]2)C(C)(C)C)cc1` [Compound S-288], the “Fold-Synergistic 1a (Q30E)” value is greater than 100 fold.
Consider `COc1cccc(C2(C(=O)N[C@H](c3nc(-c4ccc(-c5ccc(-c6c[nH]c([C@@H](NC(=O)C7(c8cccc(OC)c8)CCC(C)CC7)C(C)(C)C)n6)cc5)cc4)c[nH]3)C(C)(C)C)CCC(C)CC2)c1` (stereo partly drawn) [Compound S-289], for which the “Fold-Synergistic 1a (Q30E)” value is listed as greater than 100 fold.
Take `CC(C)(C)[C@H](NC(=O)C1CCN(c2cccc(C#N)c2)C1=O)c1nc(-c2ccc(-c3ccc(-c4c[nH]c([C@@H](NC(=O)C5CCN(c6cccc(C#N)c6)C5=O)C(C)(C)C)n4)cc3)cc2)c[nH]1` (stereo partly drawn) [Compound S-291]: the “Fold-Synergistic 1a (Q30E)” value is greater than 100 fold.
Turning to `C[C@H](C(=O)OC(C)(C)C)[C@@H](C)C(=O)N[C@H](c1nc(-c2ccc(-c3ccc(-c4c[nH]c([C@@H](NC(=O)[C@H](C)[C@H](C)C(=O)OC(C)(C)C)C(C)(C)C)n4)cc3)cc2)c[nH]1)C(C)(C)C` [Compound S-292], the “Fold-Synergistic 1a (Q30E)” value is listed as greater than 100 fold.
Take `COC12CCC(C(=O)N[C@H](c3nc(-c4ccc(-c5ccc(-c6c[nH]c([C@@H](NC(=O)C78CCC(OC)(CC7)CC8)C(C)(C)C)n6)cc5)cc4)c[nH]3)C(C)(C)C)(CC1)CC2` [Compound S-293]: the “Fold-Synergistic 1a (Q30E)” value is on record as greater than 100 fold.
The figure for `COC(=O)C1([C@H](CC(C)C)C(=O)N[C@H](c2nc(-c3ccc(-c4ccc(-c5c[nH]c([C@@H](NC(=O)[C@@H](CC(C)C)C6(C(=O)OC)CC=CC6)C(C)(C)C)n5)cc4)cc3)c[nH]2)C(C)(C)C)CC=CC1` [Compound S-294] is greater than 100 fold; for `CC(=O)N1CCC(C(=O)N[C@H](c2nc(-c3ccc(-c4ccc(-c5c[nH]c([C@@H](NC(=O)C6CCN(C(C)=O)CC6)C(C)(C)C)n5)cc4)cc3)c[nH]2)C(C)(C)C)CC1` [Compound S-297] it is greater than 10 fold.
`CC1(C(=O)N[C@H](c2nc(-c3ccc(-c4ccc(-c5c[nH]c([C@@H](NC(=O)C6(C)CC7C=CC6C7)C(C)(C)C)n5)cc4)cc3)c[nH]2)C(C)(C)C)CC2C=CC1C2` (stereo partly drawn) [Compound S-298]: the “Fold-Synergistic 1a (Q30E)” value is reported as greater than 100 fold.
In the case of `CC(C)(C)OC(=O)N[C@]1(C(=O)N[C@H](c2nc(-c3ccc(-c4ccc(-c5c[nH]c([C@@H](NC(=O)[C@@]6(NC(=O)OC(C)(C)C)C[C@H]6CC(F)F)C(C)(C)C)n5)cc4)cc3)c[nH]2)C(C)(C)C)C[C@H]1CC(F)F` [Compound W-1], the “Fold-Synergistic 1a (Q30E)” value was greater than 100 fold.
Regarding `CC(C)(C)OC(=O)N[C@]1(C(=O)N[C@H](c2nc(-c3ccc(-c4ccc(-c5c[nH]c([C@@H](NC(=O)[C@@]6(NC(=O)OC(C)(C)C)C[C@@H]6c6ccccc6)C(C)(C)C)n5)cc4)cc3)c[nH]2)C(C)(C)C)C[C@@H]1c1ccccc1` [Compound W-2], the “Fold-Synergistic 1a (Q30E)” value is greater than 100 fold.
For `CC(C)(C)OC(=O)N[C@]1(C(=O)N[C@H](c2nc(-c3ccc(-c4ccc(-c5c[nH]c([C@@H](NC(=O)[C@@]6(NC(=O)OC(C)(C)C)C[C@H]6C6CC6)C(C)(C)C)n5)cc4)cc3)c[nH]2)C(C)(C)C)C[C@H]1C1CC1` [Compound W-3], the “Fold-Synergistic 1a (Q30E)” value was greater than 100 fold.
Turning to `C=C[C@H]1C[C@@]1(NC(=O)OC(C)(C)C)C(=O)N[C@H](c1nc(-c2ccc(-c3ccc(-c4c[nH]c([C@@H](NC(=O)[C@]5(NC(=O)OC(C)(C)C)C[C@@H]5C=C)C(C)(C)C)n4)cc3)cc2)c[nH]1)C(C)(C)C` [Compound W-4], the “Fold-Synergistic 1a (Q30E)” value is given as greater than 100 fold.
As for `C=C[C@@H]1C[C@]1(NC(=O)OC(C)(C)C)C(=O)N[C@H](c1nc(-c2ccc(-c3ccc(-c4c[nH]c([C@@H](NC(=O)[C@@]5(NC(=O)OC(C)(C)C)C[C@H]5C=C)C(C)(C)C)n4)cc3)cc2)c[nH]1)C(C)(C)C` [Compound W-7], the “Fold-Synergistic 1a (Q30E)” value is given as greater than 100 fold.
Regarding `CC(C)(C)OC(=O)N[C@]1(C(=O)N[C@H](c2nc(-c3ccc(-c4ccc(-c5c[nH]c([C@@H](NC(=O)[C@@]6(NC(=O)OC(C)(C)C)C[C@H]6c6ccccc6)C(C)(C)C)n5)cc4)cc3)c[nH]2)C(C)(C)C)C[C@H]1c1ccccc1` [Compound W-8], the “Fold-Synergistic 1a (Q30E)” value is given as greater than 100 fold.
As for `CC(C)(C)OC(=O)N[C@H]1CCC[C@@H]1C(=O)N[C@H](c1nc(-c2ccc(-c3ccc(-c4c[nH]c([C@@H](NC(=O)[C@H]5CCC[C@@H]5NC(=O)OC(C)(C)C)C(C)(C)C)n4)cc3)cc2)c[nH]1)C(C)(C)C` [Compound W-9], the “Fold-Synergistic 1a (Q30E)” value was greater than 100 fold.
Take `CN(C)C(=O)C(=O)N[C@H](c1nc(-c2ccc(-c3ccc(-c4c[nH]c([C@@H](NC(=O)C(=O)N(C)C)C(C)(C)C)n4)cc3)cc2)c[nH]1)C(C)(C)C` [Compound W-10]: the “Fold-Synergistic 1a (Q30E)” value is greater than 100 fold.
With `CC(C)(C)OC(=O)N[C@@H]1CCC[C@H]1C(=O)N[C@H](c1nc(-c2ccc(-c3ccc(-c4c[nH]c([C@@H](NC(=O)[C@@H]5CCC[C@H]5NC(=O)OC(C)(C)C)C(C)(C)C)n4)cc3)cc2)c[nH]1)C(C)(C)C` [Compound W-12], the “Fold-Synergistic 1a (Q30E)” value was greater than 100 fold.
Take `CC(C)(C)[C@H](NC(=O)C(=O)c1cccs1)c1nc(-c2ccc(-c3ccc(-c4c[nH]c([C@@H](NC(=O)C(=O)c5cccs5)C(C)(C)C)n4)cc3)cc2)c[nH]1` [Compound W-19]: the “Fold-Synergistic 1a (Q30E)” value was greater than 100 fold.
As to `CC(C)(C)[C@H](NC(=O)C(=O)c1ccco1)c1nc(-c2ccc(-c3ccc(-c4c[nH]c([C@@H](NC(=O)C(=O)c5ccco5)C(C)(C)C)n4)cc3)cc2)c[nH]1` [Compound W-20], the “Fold-Synergistic 1a (Q30E)” value is greater than 100 fold.
As to `CC(C)(C)[C@H](NC(=O)C(=O)N1CCCC1)c1nc(-c2ccc(-c3ccc(-c4c[nH]c([C@@H](NC(=O)C(=O)N5CCCC5)C(C)(C)C)n4)cc3)cc2)c[nH]1` [Compound W-21], the “Fold-Synergistic 1a (Q30E)” value is recorded as greater than 100 fold.
Consider `CC(C)(C)[C@H](NC(=O)C(=O)N1CCC(F)(F)C1)c1nc(-c2ccc(-c3ccc(-c4c[nH]c([C@@H](NC(=O)C(=O)N5CCC(F)(F)C5)C(C)(C)C)n4)cc3)cc2)c[nH]1` [Compound W-22], for which the “Fold-Synergistic 1a (Q30E)” value is recorded as greater than 100 fold.
The figure for `CC(C)(C)[C@H](NC(=O)C(=O)N1CCOCC1)c1nc(-c2ccc(-c3ccc(-c4c[nH]c([C@@H](NC(=O)C(=O)N5CCOCC5)C(C)(C)C)n4)cc3)cc2)c[nH]1` [Compound W-25] is greater than 100 fold; for `CC(C)(C)[C@H](NC(=O)C(=O)N1CCC(F)CC1)c1nc(-c2ccc(-c3ccc(-c4c[nH]c([C@@H](NC(=O)C(=O)N5CCC(F)CC5)C(C)(C)C)n4)cc3)cc2)c[nH]1` [Compound W-26] it is greater than 100 fold.
On to `CC(C)(C)[C@H](NC(=O)C(=O)N1CC[C@H](F)C1)c1nc(-c2ccc(-c3ccc(-c4c[nH]c([C@@H](NC(=O)C(=O)N5CC[C@H](F)C5)C(C)(C)C)n4)cc3)cc2)c[nH]1` [Compound W-27], for which the “Fold-Synergistic 1a (Q30E)” value is given as greater than 100 fold.
The figure for `CC(C)(C)[C@H](NC(=O)C(=O)N1CC(F)(F)C1)c1nc(-c2ccc(-c3ccc(-c4c[nH]c([C@@H](NC(=O)C(=O)N5CC(F)(F)C5)C(C)(C)C)n4)cc3)cc2)c[nH]1` [Compound W-28] is greater than 100 fold; for `CC(C)(C)[C@H](NC(=O)C(=O)N1CCCCCC1)c1nc(-c2ccc(-c3ccc(-c4c[nH]c([C@@H](NC(=O)C(=O)N5CCCCCC5)C(C)(C)C)n4)cc3)cc2)c[nH]1` [Compound W-32] it is greater than 100 fold.
The figure for `CCN(CC)C(=O)C(=O)N[C@H](c1nc(-c2ccc(-c3ccc(-c4c[nH]c([C@@H](NC(=O)C(=O)N(CC)CC)C(C)(C)C)n4)cc3)cc2)c[nH]1)C(C)(C)C` [Compound W-33] is greater than 100 fold.
Take `CN1CCN(C(=O)C(=O)N[C@H](c2nc(-c3ccc(-c4ccc(-c5c[nH]c([C@@H](NC(=O)C(=O)N6CCN(C)CC6)C(C)(C)C)n5)cc4)cc3)c[nH]2)C(C)(C)C)CC1` [Compound W-35]: the “Fold-Synergistic 1a (Q30E)” value is on record as greater than 100 fold.
Turning to `CCN(CC(F)(F)F)C(=O)C(=O)N[C@H](c1nc(-c2ccc(-c3ccc(-c4c[nH]c([C@@H](NC(=O)C(=O)N(CC)CC(F)(F)F)C(C)(C)C)n4)cc3)cc2)c[nH]1)C(C)(C)C` [Compound W-37], the “Fold-Synergistic 1a (Q30E)” value is greater than 100 fold.
For `C[C@@H]1CCCCN1C(=O)C(=O)N[C@H](c1nc(-c2ccc(-c3ccc(-c4c[nH]c([C@@H](NC(=O)C(=O)N5CCCC[C@H]5C)C(C)(C)C)n4)cc3)cc2)c[nH]1)C(C)(C)C` [Compound W-38] the value was greater than 100 fold.
As to `CC(C)(C)[C@H](NC(=O)C(=O)N(CCC#N)C1CC1)c1nc(-c2ccc(-c3ccc(-c4c[nH]c([C@@H](NC(=O)C(=O)N(CCC#N)C5CC5)C(C)(C)C)n4)cc3)cc2)c[nH]1` [Compound W-48], the “Fold-Synergistic 1a (Q30E)” value is recorded as greater than 100 fold.
As to `CC(C)N(C(=O)C(=O)N[C@H](c1nc(-c2ccc(-c3ccc(-c4c[nH]c([C@@H](NC(=O)C(=O)N(C(C)C)C5CC5)C(C)(C)C)n4)cc3)cc2)c[nH]1)C(C)(C)C)C1CC1` [Compound W-49], the “Fold-Synergistic 1a (Q30E)” value is on record as greater than 100 fold.
With `CN(C(=O)C(=O)N[C@H](c1nc(-c2ccc(-c3ccc(-c4c[nH]c([C@@H](NC(=O)C(=O)N(C)C5CC5)C(C)(C)C)n4)cc3)cc2)c[nH]1)C(C)(C)C)C1CC1` [Compound W-50], the “Fold-Synergistic 1a (Q30E)” value is given as greater than 100 fold.
For `CC(C)[C@H](NC(=O)C(=O)N1CCC(F)(F)CC1)c1nc(-c2ccc(-c3ccc(-c4c[nH]c([C@@H](NC(=O)C(=O)N5CCC(F)(F)CC5)C(C)C)n4)cc3)cc2)c[nH]1` [Compound W-51], the “Fold-Synergistic 1a (Q30E)” value is listed as greater than 100 fold.
Consider `CC(C)[C@H](NC(=O)C(=O)N1CCCCCC1)c1nc(-c2ccc(-c3ccc(-c4c[nH]c([C@@H](NC(=O)C(=O)N5CCCCCC5)C(C)C)n4)cc3)cc2)c[nH]1` [Compound W-52], for which the “Fold-Synergistic 1a (Q30E)” value is on record as greater than 100 fold.
